What was measured:
TLR7/8 = test: TNF-α secretion in RAW 264.7 cells with R848; format: cell-based, mouse
TLR9 = molecular target: T1, TLR9 (Mus musculus, UniProt Q9EQU3); test: TNF-α secretion in RAW 264.7 cells with CpG-ODN; format: cell-based
T1 construct: host or cells: RAW 264.7
T1 sequence (Q9EQU3 26-1032): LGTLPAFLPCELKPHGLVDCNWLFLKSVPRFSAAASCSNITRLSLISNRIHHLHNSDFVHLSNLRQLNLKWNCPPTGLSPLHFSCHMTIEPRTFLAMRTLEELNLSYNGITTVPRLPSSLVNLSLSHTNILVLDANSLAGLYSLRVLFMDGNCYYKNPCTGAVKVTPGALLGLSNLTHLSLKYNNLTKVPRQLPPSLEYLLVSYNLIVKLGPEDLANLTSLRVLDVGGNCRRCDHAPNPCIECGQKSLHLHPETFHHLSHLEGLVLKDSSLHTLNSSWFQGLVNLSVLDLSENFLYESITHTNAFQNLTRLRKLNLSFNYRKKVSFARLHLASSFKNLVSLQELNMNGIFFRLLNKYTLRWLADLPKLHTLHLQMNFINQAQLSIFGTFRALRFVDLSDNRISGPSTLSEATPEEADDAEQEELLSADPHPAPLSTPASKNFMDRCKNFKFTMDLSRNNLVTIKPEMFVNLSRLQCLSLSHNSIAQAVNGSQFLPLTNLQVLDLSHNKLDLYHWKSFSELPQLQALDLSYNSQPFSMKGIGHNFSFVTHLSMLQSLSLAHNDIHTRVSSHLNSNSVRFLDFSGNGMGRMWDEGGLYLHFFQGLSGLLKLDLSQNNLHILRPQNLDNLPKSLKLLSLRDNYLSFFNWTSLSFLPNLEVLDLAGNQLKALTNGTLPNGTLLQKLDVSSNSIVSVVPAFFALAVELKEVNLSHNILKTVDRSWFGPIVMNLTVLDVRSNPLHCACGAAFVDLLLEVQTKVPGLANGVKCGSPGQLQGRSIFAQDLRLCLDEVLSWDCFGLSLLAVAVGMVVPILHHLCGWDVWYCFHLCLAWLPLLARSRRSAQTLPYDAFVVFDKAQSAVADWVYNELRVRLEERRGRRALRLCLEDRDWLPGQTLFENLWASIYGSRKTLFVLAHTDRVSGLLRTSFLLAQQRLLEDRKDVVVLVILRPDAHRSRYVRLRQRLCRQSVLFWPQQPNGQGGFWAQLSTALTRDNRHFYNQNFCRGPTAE

[1] = test system: LPS-injected C57BL/6J mice; test: Plasma cytokine secretion in LPS-injected mice; format: in vivo, mouse; conditions: TIP1 10 nmol/g i.p., 1 hour later LPS 5 μg/g, blood 1 or 2 hours
Protocol: All animal experiments were conducted under approval of the Institutional Animal Care and Use Committee (KHNMC AP 2016-006). […] The control was injected with the same volume of PBS. Subsequently, the plasma was isolated through centrifugation from the mouse blood and stored at −80° C. until analysis of secretion levels. TNF-α, IL-12p40 (diluted at 1:100), and IL-6 (diluted at 1:100) levels in the plasma were measured using mouse TNF-α, IL-12p40, IL-6 ELISA MAX Deluxe ELISA kits (BioLegend, San Diego, Calif., USA). Absorbance was measured at 450 nm using a microplate reader spectrophotometer (Molecular Devices In.), and the results were analyzed using Softmax Pro 5.3 software (Molecular Devices Inc.). The results are illustrated in FIGS. 14(a)-14(c).

[2] = test system: RAW 264.7 cells (LPS-induced TLR4 signaling); test: Cytokine secretion (ELISA) in LPS-treated RAW 264.7 cells; format: cell-based, mouse; conditions: TIP1 and LPS
Protocol: RAW 264.7 cells, THP1 cells, and mBMDM cells were dispensed into 96-well plates to a cell number of 2×10^5 cells/well, or into 24-well plates to a cell number of 5×10^5 cells/well. Incubation was performed overnight. Subsequently, combined treatment with TIP1 and LPS was performed. After 24 hours, secretion levels of IFN-β, IL-6, and TNF-α were measured using a […] (BioLegend), Mouse IL-6 Platinum ELISA (eBiosciences), and a Mouse TNF alpha ELISA Ready SET-Go! kit (eBiosciences). Absorbance was measured at 450 nm using a microplate reader spectrophotometer (Molecular Devices), and the results were analyzed using Softmax Pro 5.3 software (Molecular Devices Inc.).
TNF-α, IL-6, IFN-β levels in the culture supernatant of RAW 264.7 cells were measured using mouse TNF-α, IL-6, IFN-β Ready-SET-Go! ELISA kits according to the method described in Example 2-5. The results are illustrated in FIGS. 4(a)-4(c).

TLR1/2 = molecular target: T2, TLR1/2 (Mus musculus, UniProt Q9EPQ1+Q9QUN7); test: TNF-α secretion in RAW 264.7 cells with PAM3CSK4; format: cell-based
T2 construct: host or cells: RAW 264.7
T2 sequence (Q9EPQ1 26-795): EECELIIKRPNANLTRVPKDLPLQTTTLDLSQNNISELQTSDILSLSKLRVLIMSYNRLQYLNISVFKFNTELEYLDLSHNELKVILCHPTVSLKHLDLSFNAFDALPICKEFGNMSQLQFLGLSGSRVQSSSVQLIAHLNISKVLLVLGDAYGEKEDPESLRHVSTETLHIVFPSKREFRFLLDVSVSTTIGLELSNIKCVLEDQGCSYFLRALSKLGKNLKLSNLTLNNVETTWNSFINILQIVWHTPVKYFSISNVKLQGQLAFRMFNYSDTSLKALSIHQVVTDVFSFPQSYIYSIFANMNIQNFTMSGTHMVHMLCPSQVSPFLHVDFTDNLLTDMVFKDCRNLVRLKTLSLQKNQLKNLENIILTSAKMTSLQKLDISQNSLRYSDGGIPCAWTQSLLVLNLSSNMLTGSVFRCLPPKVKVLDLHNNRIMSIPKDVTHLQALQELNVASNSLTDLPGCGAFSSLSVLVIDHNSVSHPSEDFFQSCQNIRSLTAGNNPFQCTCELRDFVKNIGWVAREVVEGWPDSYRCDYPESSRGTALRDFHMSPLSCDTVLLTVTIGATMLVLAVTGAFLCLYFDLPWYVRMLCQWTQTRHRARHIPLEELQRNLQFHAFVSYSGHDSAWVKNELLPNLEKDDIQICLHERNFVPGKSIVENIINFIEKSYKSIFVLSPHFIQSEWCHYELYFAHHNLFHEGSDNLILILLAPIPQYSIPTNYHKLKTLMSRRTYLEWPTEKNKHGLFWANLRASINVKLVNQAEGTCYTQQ
T2 sequence (Q9QUN7 25-784): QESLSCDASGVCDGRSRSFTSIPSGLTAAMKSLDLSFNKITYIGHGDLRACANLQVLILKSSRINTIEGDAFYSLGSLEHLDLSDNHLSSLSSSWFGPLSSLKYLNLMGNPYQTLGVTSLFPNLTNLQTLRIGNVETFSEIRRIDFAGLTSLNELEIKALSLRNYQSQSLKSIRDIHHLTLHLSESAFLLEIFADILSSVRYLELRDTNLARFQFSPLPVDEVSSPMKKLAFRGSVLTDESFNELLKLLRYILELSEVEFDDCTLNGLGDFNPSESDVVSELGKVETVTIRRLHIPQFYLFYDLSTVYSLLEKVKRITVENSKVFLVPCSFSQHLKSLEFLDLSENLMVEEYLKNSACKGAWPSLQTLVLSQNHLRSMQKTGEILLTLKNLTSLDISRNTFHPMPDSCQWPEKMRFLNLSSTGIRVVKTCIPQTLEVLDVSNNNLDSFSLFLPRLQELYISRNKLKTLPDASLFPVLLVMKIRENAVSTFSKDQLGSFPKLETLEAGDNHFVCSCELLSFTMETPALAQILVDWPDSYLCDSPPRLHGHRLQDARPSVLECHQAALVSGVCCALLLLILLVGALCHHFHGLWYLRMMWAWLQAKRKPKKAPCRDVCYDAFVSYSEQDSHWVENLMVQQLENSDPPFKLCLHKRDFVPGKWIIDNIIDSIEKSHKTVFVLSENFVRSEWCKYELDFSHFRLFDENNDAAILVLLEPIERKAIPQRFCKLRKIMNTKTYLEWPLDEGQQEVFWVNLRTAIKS

[3] = test system: C57BL/6J mice, mouse sepsis model; test: Renal and hepatic damage markers and cytokines in plasma, mouse sepsis model (24 hours); format: in vivo; conditions: TIP1 and LPS
Protocol: Using the isolated plasma, secretion levels of TNF-α and IL-6 were measured by the method in Experimental Example 9, and changes in secretion levels of the renal damage markers, blood urea nitrogen (BUN) and creatinine (Cr), and the hepatic damage markers, aspartate aminotransferase (AST) and alanine aminotransferase (ALT) were analyzed through VETTEST-8008-system (IDEXX). The results are illustrated in FIGS. 16(a)-16(f).

RAW 264.7 cells = test: Intracytoplasmic NO and ROS (DAF-FM, DCF-DA) in RAW 264.7 cells; format: cell-based, mouse; conditions: TIP1 and LPS
Protocol: RAW 264.7 cells were dispensed into 6-cm dishes (SPL Life Sciences, Pocheon, Korea) to a cell number of 1×10^6 cells/well and incubation was performed overnight. Subsequently, treatment with TIP1 was performed and respective staining with DAF-FM and DCF-DA (Thermo Fisher Scientific, Inc.) was performed. Then, incubation was performed for 1 hour. Thereafter, the cells were collected by centrifugation at 200×g for 5 minutes, transferred to brown tubes, and stored in PBS at a temperature of 4° C. The intensities of DAF-FM, DCF-DA fluorescent materials were measured using FACSAria III with Diva software (BD Biosciences), and quantified.
In addition, according to the method described in Example 2-7, a NO level in the culture supernatant of RAW 264.7 cells was measured using a NO detection kit. The results are illustrated in FIGS. 5(a)-5(c).

Sequence: RQIKIWFQNRRMKWKKSHCRVLLI (TIP1)
- secretion level of TNF-α (TLR7/8): decreased
- secretion level of TNF-α (TLR9): decreased
- secretion level of IL-6 in plasma [1]: remarkably decreased
- secretion level of IL-12p40 in plasma [1]: remarkably decreased
- secretion level of TNF-α in plasma [1]: remarkably decreased
- secretion of IFN-β [2]: decreased in a concentration-dependent manner
- secretion of IL-6 [2]: decreased in a concentration-dependent manner
- secretion of TNF-α [2]: decreased in a concentration-dependent manner
- secretion level of TNF-α (TLR1/2): decreased
- alanine aminotransferase (ALT), hepatic damage marker [3]: remarkably decreased
- aspartate aminotransferase (AST), hepatic damage marker [3]: remarkably decreased
- blood urea nitrogen (BUN), renal damage marker [3]: remarkably decreased
- creatinine (Cr), renal damage marker [3]: remarkably decreased
- secretion level of IL-6 in plasma [3]: remarkably decreased
- secretion level of TNF-α in plasma [3]: remarkably decreased
- generation level of NO in the cytoplasm (RAW 264.7 cells; DAF-FM): effectively decreased
- generation level of ROS in the cytoplasm (RAW 264.7 cells; DCF-DA): effectively decreased
